Data on nine compounds can be found in paper PMC9551276, “Design, synthesis and biological evaluation of novel orthosteric-allosteric ligands of the cannabinoid receptor type 2 (CB2R)” (Frontiers in Chemistry, 2022).

Series [1] addresses T1, hCB2R (Homo sapiens, UniProt P34972). The experiment in a line: DiscoveRx HitHunter inhibition of FSK-stimulated cAMP accumulation. The format is cell-based. How it is done: Inhibition of FSK-stimulated cAMP accumulation was measured using the DiscoveRx HitHunter assay.
For orientation: cAMP levels reflect the balance of adenylyl cyclase and phosphodiesterase activity.

Series [2] has as its target T1, hCB2R. The experiment in a line: DiscoveRx PathHunter βarrestin2 recruitment. The format is cell-based. How it is done:
βarrestin2 recruitment was quantified using the DiscoveRx PathHunter® assay. […] Detection solution was added to cells (DiscoveRx), and cells were incubated for 60 min at room temperature. Chemiluminescence was measured on a Cytation5 plate reader (top read, gain 200, integration time 10,000 ms).
For orientation: Recruitment of arrestin is a read-out of receptor activation apart from second messengers.

For another series, the target named is T2, hCB1R (Homo sapiens, UniProt P21554).
T2 construct: expressed in transfected cells; host or cells: CHO-K1 (ATCC CCL-61) stably expressing hCB1R; membranes
The experiment in a line: [3H]CP55,940 radioligand displacement, CHO-K1 hCB1R membranes. The format is binding. The settings on record: % [3H]CP55,940 bound, 1 nM radioligand, 2 h. Here is the method: (§1) CHO-K1 cells were thawed, diluted in Tris buffer (50 mM Tris [pH 7.4]) and homogenized in a 1 ml hand-held homogenizer. hCB1R and hCB2R CHO-K1 cell membranes were collected by cavitation in a pressure cell, and sedimented by ultracentrifugation. Pellets were resuspended in TME buffer (50 mM Tris, 5 mM MgCl2, 1 mM EDTA [pH 7.4]), and protein concentration was measured via the Bradford method according to the manufacturer’s directions (Bio-Rad Laboratories, Mississauga, ON). […] Radioligand binding began with the addition of CHO-K1 cell membranes (25 µg protein per sample). Assays were performed for 120 min at 37°C and stopped by the addition of ice-cold Tris binding buffer (pH 7.4), followed by vacuum filtration using a 24-well sampling manifold (Brandel Cell Harvester; Brandel Inc., Gaithersburg, MD, United States ). Brandel GF/B filter paper was soaked with wash buffer at 4 °C for at least 24 h. Each filter paper was washed 6 times with a 1.2 ml aliquot of Tris-binding buffer (pH 7.4), then air-dried and submerged in 5 ml of scintillation fluid (Ultima Gold XR, PerkinElmer). Liquid scintillation spectrometry was used to quantify radioactivity.
A general note: Displacement assays read how much labelled ligand stays bound in the presence of the test substance.

The target in series [3] is T1, hCB2R. The experiment in a line: [3H]CP55,940 radioligand displacement, CHO-K1 hCB2R membranes. The format is binding. The settings on record: for hCB2R E min (% CP55,940) ± S.E.M: % [3H]CP55,940 bound, 1 nM radioligand, 2 h; for Effect on [3H]CP55,940 bound to hCB2R: [3H]CP55,940 displacement. Here is the method: as §1, with “Assays were performed for 120 min at 37°C and stopped by the addition of ice-cold Tris binding buffer (pH 7.4), followed by vacuum filtration using a 24-well sampling manifold (Brandel Cell Harvester; Brandel Inc., Gaithersburg, MD, United States ).” left out

In series [4] the test system is human microglial cells (HMC3). Kind of series: IL-6 and IL-10 release (ELISA) in LPS/TNFα-stimulated HMC3 cells. The format is cell-based. How it is done:
The concentrations of pro-inflammatory (IL-6) and anti-inflammatory (IL-10) interleukins were determined by performing specific ELISA assays (MyBioSource, San Diego, CA, United States ) on collected culture media. Human microglial cells (HMC3) were exposed to pretreatment with test compounds for 1 h followed by stimulation with LPS (10 μg/ml)/TNFα (50 ng/ml) for 24 h. In competition experiments, the CB2R antagonist (SR144528, 1 μM) or the CB2R positive allosteric modulator (EC21a 1 or 10 μM) were administered 15 min before agonist administration.

[5] abbreviates: CHO-K1 hCB2R, 10 µM FSK, 90 min.
Where [6] appears, read: CHO-K1 hCB2R, 10 µM FSK, 90 min, read-out: Inhibition of cAMP EC50 (95% C.I.).
Where [7] appears, read: CHO-K1 hCB2R, 90 min, read-out: βarrestin2 recruitment EC50 (95% C.I.).

“And” between values parts separate entries of the source, which are not always exact repeats. Identical values can stand only once.

T2 sequence (P21554 whole entry): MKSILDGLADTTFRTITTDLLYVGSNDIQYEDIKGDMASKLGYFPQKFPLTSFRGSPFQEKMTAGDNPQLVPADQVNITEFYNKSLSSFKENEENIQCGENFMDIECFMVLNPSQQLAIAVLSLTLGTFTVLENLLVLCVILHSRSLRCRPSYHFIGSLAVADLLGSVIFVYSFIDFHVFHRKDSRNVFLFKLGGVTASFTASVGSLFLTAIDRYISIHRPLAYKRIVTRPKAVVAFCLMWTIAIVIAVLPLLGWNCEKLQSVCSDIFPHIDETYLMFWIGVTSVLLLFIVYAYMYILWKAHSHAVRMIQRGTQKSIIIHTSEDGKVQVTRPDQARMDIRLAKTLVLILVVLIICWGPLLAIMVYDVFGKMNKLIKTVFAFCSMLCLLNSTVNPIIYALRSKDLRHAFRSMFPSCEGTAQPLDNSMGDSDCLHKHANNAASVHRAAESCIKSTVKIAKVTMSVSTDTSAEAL
T1 sequence (P34972 whole entry): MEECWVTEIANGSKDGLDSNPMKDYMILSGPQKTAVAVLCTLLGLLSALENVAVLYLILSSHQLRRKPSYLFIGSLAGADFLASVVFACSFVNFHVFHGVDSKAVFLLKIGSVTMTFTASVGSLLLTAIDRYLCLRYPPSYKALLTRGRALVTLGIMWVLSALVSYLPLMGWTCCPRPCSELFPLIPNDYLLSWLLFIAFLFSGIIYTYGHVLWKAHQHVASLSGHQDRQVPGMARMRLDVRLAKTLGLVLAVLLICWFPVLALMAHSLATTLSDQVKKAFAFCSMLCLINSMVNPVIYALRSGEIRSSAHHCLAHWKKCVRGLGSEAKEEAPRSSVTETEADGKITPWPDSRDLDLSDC

For orientation: EC50 means the concentration giving half of the maximal effect. Broadly, the IC50 is the concentration that inhibits the measured activity by half. Higher therefore signals weaker potency in that assay. On to `Cc1c(Br)cn(Cc2ccc(F)cc2)c(=O)c1NC(=O)C1CCCCCC1` [EC21a, reference compound], for which the “Response in inhibition of FSK-stimulated cAMP accumulation” value on hCB2R [1] (CHO-K1 hCB2R) was “no response was detected”. For the same compound, on hCB2R [1] (setting [5]), the “Inhibition of cAMP E max (% CP55,940) ± S.E.M” value was 2.5 ± 0.53 % CP55,940. In addition, at hCB2R [1] (Inhibition of cAMP EC50 (95% C.I.), CHO-K1 hCB2R, 10 µM FSK, 90 min), the EC50 is > 10000 nM. In addition, the EC50 on hCB2R [1] (Inhibition of cAMP EC50 (95% C.I.), co-administration, EC21a concentration-response in the presence of 10 nM LV62, 10 µM FSK, 90 min) worked out at 4.3 nM. For the same compound, the concentration giving a half-maximal response (EC50) on hCB2R [2] is > 10000 nM. On hCB2R [2] (CHO-K1 hCB2R), the “Response in βarrestin2 recruitment” value is listed as “no response was detected”. On hCB2R [2] (CHO-K1 hCB2R, 90 min), the “βarrestin2 recruitment E max (% CP55,940) ± S.E.M” value is listed as 1.4 ± 0.96 % CP55,940. In addition, on hCB1R, the “hCB1R E min (% CP55,940) ± S.E.M” value is 103 ± 2.5 % CP55,940. Moreover, on hCB2R [3], the half-inhibitory concentration (IC50) is 36 nM, the “hCB2R E min (% CP55,940) ± S.E.M” value was 115 ± 7.9 % CP55,940 and the “Effect on [3H]CP55,940 bound to hCB2R” value is reported as “increased”. In addition, in series [4] (EC21a at equimolar or higher doses, LPS/TNFα), the “Effect of co-administered EC21a on JR64a anti-inflammatory activity (IL-6 release)” value was “no effects on JR64a anti-inflammatory activity”. For the same compound, in series [4] (LV62 1 or 10 μM with EC21a 1:1, LPS/TNFα 24 h), the “Effect of equimolar EC21a on LV62 anti-inflammatory activity” value is given as “enhanced LV62 anti-inflammatory activity”.
In general, melting point refers to the temperature of the solid-liquid transition. Regarding `Cc1c(Br)cn(CCCc2cn(CCCCC(=O)NC3CCC(NC(=O)c4cc5cccnc5n(Cc5ccc(F)cc5)c4=O)CC3)nn2)c(=O)c1NC(=O)C1CCCCCC1` (stereo not shown) [JR14a, N-(4-(5-(4-(3-(5-bromo-3-(cycloheptanecarboxamido)-4-methyl-2-oxopyridin-1(2H)-yl)propyl)-1H-1,2,3-triazol-1-yl)pentanamido)cyclohexyl)-1-(4-fluorobenzyl)-2-oxo-1,2-dihydro-1,8-naphthyridine-3-carboxamide], the melting point is 108 °C (dec.). Further, the “Response in inhibition of FSK-stimulated cAMP accumulation” value at hCB2R [1] (CHO-K1 hCB2R) is “modest partial agonist activity”. Moreover, the “Inhibition of cAMP E max (% CP55,940) ± S.E.M” value at hCB2R [1] (setting [5]) is given as 41 ± 5.7 % CP55,940. Moreover, on hCB2R [1] (setting [6]), the EC50 came to 150 nM. The “βarrestin2 recruitment E max (% CP55,940) ± S.E.M” value on hCB2R [2] (CHO-K1 hCB2R, 90 min) is reported as 39 ± 0.93 % CP55,940. For the same compound, the EC50 at hCB2R [2] (setting [7]) was 25 nM. Moreover, at hCB1R, the “hCB1R E min (% CP55,940) ± S.E.M” value was 98 ± 2.5 % CP55,940. Besides, on hCB2R [3], the IC50 was determined as 1.8 nM and the “hCB2R E min (% CP55,940) ± S.E.M” value was 59 ± 12.3 % CP55,940.
For `Cc1c(Br)cn(Cc2cn(CCCCC(=O)NC3CCC(NC(=O)c4cc5cccnc5n(Cc5ccc(F)cc5)c4=O)CC3)nn2)c(=O)c1NC(=O)C1CCCCCC1` (stereo not shown) [JR16a, N-(4-(5-(4-((5-bromo-3-(cycloheptanecarboxamido)-4-methyl-2-oxopyridin-1(2H)-yl)methyl)-1H-1,2,3-triazol-1-yl)pentanamido)cyclohexyl)-1-(4-fluorobenzyl)-2-oxo-1,2-dihydro-1,8-naphthyridine-3-carboxamide], the melting point is 113 °C (dec.). The “Inhibition of cAMP E max (% CP55,940) ± S.E.M” value at hCB2R [1] (setting [5]) was 36 ± 8.6 % CP55,940. Besides, at hCB2R [1] (setting [6]), the EC50 was determined as 350 nM. For the same compound, on hCB2R [2] (CHO-K1 hCB2R, 90 min), the “βarrestin2 recruitment E max (% CP55,940) ± S.E.M” value is 27 ± 4.2 % CP55,940.
For the compound `Cc1c(Br)cn(CCCc2cn(CCCCCn3c(=O)c(C(=O)NC4CCC(C)CC4)cc4cccnc43)nn2)c(=O)c1NC(=O)C1CCCCCC1` (stereo not shown) [JR22a, 1-(5-(4-(3-(5-bromo-3-(cycloheptanecarboxamido)-4-methyl-2-oxopyridin-1(2H)-yl)propyl)-1H-1,2,3-triazol-1-yl)pentyl)-N-(4-methylcyclohexyl)-2-oxo-1,2-dihydro-1,8-naphthyridine-3-carboxamide], the melting point was 114 °C (dec.). This compound also came in with a half-maximal effective concentration (EC50) at hCB2R [1] of 62 nM. The “Inhibition of cAMP E max (% CP55,940) ± S.E.M” value at hCB2R [1] (setting [5]) was 38 ± 5.5 % CP55,940. The 50% effective concentration (EC50) on hCB2R [2] was > 10000 nM. The “βarrestin2 recruitment E max (% CP55,940) ± S.E.M” value on hCB2R [2] (CHO-K1 hCB2R, 90 min) is 33 ± 3.1 % CP55,940.
On to `Cc1c(Br)cn(Cc2cn(CCCCCn3c(=O)c(C(=O)NC4CCC(C)CC4)cc4cccnc43)nn2)c(=O)c1NC(=O)C1CCCCCC1` (stereo not shown) [JR26a, 1-(5-(4-((5-bromo-3-(cycloheptanecarboxamido)-4-methyl-2-oxopyridin-1(2H)-yl)methyl)-1H-1,2,3-triazol-1-yl)pentyl)-N-(4-methylcyclohexyl) -2-oxo-1,2-dihydro-1,8-naphthyridine-3-carboxamide], for which the melting point was 116 °C (dec.). Further, the “Inhibition of cAMP E max (% CP55,940) ± S.E.M” value at hCB2R [1] (setting [5]) is reported as 41 ± 5.1 % CP55,940. Further, the EC50 at hCB2R [1] (setting [6]) was 110 nM. On hCB2R [2] (CHO-K1 hCB2R, 90 min), the “βarrestin2 recruitment E max (% CP55,940) ± S.E.M” value is 39 ± 6.1 % CP55,940. Further, the EC50 at hCB2R [2] (setting [7]) was > 10000 nM.
As for `Cc1c(Br)cn(CCOCCn2c(=O)c(C(=O)NC3CCC(C)CC3)cc3cccnc32)c(=O)c1NC(=O)C1CCCCCC1` (stereo not shown) [JR58a, 1-(2-(2-(5-bromo-3-(cycloheptanecarboxamido)-4-methyl-2-oxopyridin-1(2H)-yl)ethoxy)ethyl)-N-(4-methylcyclohexyl)-2-oxo-1,2-dihydro-1,8-naphthyridine-3-carboxamide], the melting point is 110 °C (dec.). Also, the response at hCB2R [1] was half-maximal at 270 nM (EC50). Besides, on hCB2R [1] (setting [5]), the “Inhibition of cAMP E max (% CP55,940) ± S.E.M” value was 45 ± 2.9 % CP55,940. For the same compound, on hCB2R [2], the EC50 is > 10000 nM. Moreover, the “βarrestin2 recruitment E max (% CP55,940) ± S.E.M” value at hCB2R [2] (CHO-K1 hCB2R, 90 min) is given as 51 ± 2.8 % CP55,940.
The corresponding values for `Cc1c(Br)cn(CCCCOCCCCn2c(=O)c(C(=O)NC3CCC(C)CC3)cc3cccnc32)c(=O)c1NC(=O)C1CCCCCC1` (stereo not shown) [JR60a, 1-(4-(4-(5-bromo-3-(cycloheptanecarboxamido)-4-methyl-2-oxopyridin-1(2H)-yl)butoxy)butyl)-N-(4-methylcyclohexyl)-2-oxo-1,2-dihydro-1,8-naphthyridine-3-carboxamide] are 118 °C (dec.), 770 nM, 46 ± 4.4 % CP55,940, > 10000 nM and 36 ± 9.2 % CP55,940.
Taken in the same sequence, the figures for `Cc1c(Br)cn(CCCCCn2c(=O)c(C(=O)NC3CCC(C)CC3)cc3cccnc32)c(=O)c1NC(=O)C1CCCCCC1` (stereo not shown) [JR61a, 1-(5-(5-bromo-3-(cycloheptanecarboxamido)-4-methyl-2-oxopyridin-1(2H)-yl)pentyl)-N-(4-methylcyclohexyl)-2-oxo-1,2-dihydro-1,8-naphthyridine-3-carboxamide] were 118 °C (dec.), 420 nM, 46 ± 1.7 % CP55,940, > 10000 nM and 34 ± 2.2 % CP55,940.
On hCB2R [1], `CC1CCC(NC(=O)c2cc3cccnc3n(CCCCCO)c2=O)CC1` (stereo not shown) [LV62, reference compound] had an EC50 of 58 nM. Moreover, the “Inhibition of cAMP E max (% CP55,940) ± S.E.M” value on hCB2R [1] (setting [5]) is 110 ± 8.8 % CP55,940 and 110 ± 5.3 % CP55,940. Moreover, the “βarrestin2 recruitment E max (% CP55,940) ± S.E.M” value at hCB2R [2] (CHO-K1 hCB2R, 90 min) is 65 ± 1.4 % CP55,940. Moreover, the “hCB1R E min (% CP55,940) ± S.E.M” value at hCB1R is 106 ± 3.6 % CP55,940. For the same compound, at hCB2R [3], the IC50 is 0.65 nM, the “hCB2R E min (% CP55,940) ± S.E.M” value is 16 ± 11.9 % CP55,940 and the “Effect on [3H]CP55,940 bound to hCB2R” value was “fully displaced”.
